Assay results published in patent US20130287873A1, “PHARMACEUTICAL COMPOSITION AND METHOD FOR PREPARING A MEDICATION FOR PROMOTING WOUND HEALING” (INDUSTRIAL TECHNOLOGY RESEARCH INSTITUTE, priority 2012, published 2013).

Test system: human umbilical vein endothelial cells
Experiment: Proliferation of human umbilical vein endothelial cells by MTT assay
Type: cell-based
Conditions: Table 4, 48 hours
Description: A growth factor, VEGF, or notoginsenoside R1, etc. were used as control groups to screen a plant extract for promoting proliferation of vein endothelial cells and estimating activity of the plant extract. The experimental method is described as follows. Human umbilical vein endothelial cells were inoculated in a 96 well plate coated with gelatin with a density of 5×10^3 cells/well, and cultured with M199 complete medium in a 37° C. incubator with 5% CO2 overnight. The next day, the medium in the 96 well plate was changed to a medium containing a test plant extract with a specific concentration and a fresh 5% serum without ECGS, and then the culture plate was incubated. After 48 hours, activity of cells in the culture plate were analyzed by MTT assay and quantitated to obtain the information of the-functional specice of plant, the best part of the plant and the best extraction method for the plant for promoting the proliferation of human umbilical vein endothelial cells.
The extract of whole plants of Sambucus formosana Nakai (Herb 1) and the extract of roots of Isatis indigotica Fort. (Herb 2) were diluted 10-fold from 100 μg/mL which was an effective concentration from the primary screening to 0.1 μg/mL to determine the effective range and dose-response of the herbal extracts. The results of the proliferation assay for cells treated with different single-plant extracts are shown in FIG. 1A and Table 4, the results of the activity assay for cells treated with a combination of plant extracts are shown in FIG. 1B and Table 5, and the results of the proliferation assay for cells treated with extracts of specific parts of the plant are shown in FIG. 1C and Table 6. The two kinds of herbs with a concentration of 100 μg/mL have significant effects for promoting growth of vein endothelial cells, and are capable of achieving a promoting effect equivalent to that of VEGF.

SMILES: C=CCSSCC=C [Diallyl disulfide (DADS), Diallyl disulfide]
- Cell growth rate (%) (mean ± standard deviation) (0.005 μM): 107 ± 6%
- Cell growth rate (%) (mean ± standard deviation) (0.05 μM): 110 ± 2%
- Cell growth rate (%) (mean ± standard deviation) (0.5 μM): 101 ± 9%
- Cell growth rate (%) (mean ± standard deviation) (5 μM): 108 ± 4%

SMILES: C=CCSCC=C [Diallyl sulfide (DAS), Diallyl sulfide]
- Cell growth rate (%) (mean ± standard deviation) (0.005 μM): 113 ± 12%
- Cell growth rate (%) (mean ± standard deviation) (0.05 μM): 123 ± 11%
- Cell growth rate (%) (mean ± standard deviation) (0.5 μM): 108 ± 2%
- Cell growth rate (%) (mean ± standard deviation) (5 μM): 148 ± 1%

SMILES: CC(C)=CCC[C@](C)(O[C@@H]1O[C@H](CO)[C@@H](O)[C@H](O)[C@H]1O)[C@H]1CC[C@]2(C)[C@@H]1[C@H](O)C[C@@H]1[C@@]3(C)CC[C@H](O)C(C)(C)[C@@H]3[C@@H](O[C@@H]3O[C@H](CO)[C@@H](O)[C@H](O)[C@H]3O[C@@H]3OC[C@@H](O)[C@H](O)[C@H]3O)C[C@]12C [Notoginsenoside R1]
- Cell growth rate (%) (mean ± standard deviation) (0.05 μg/mL): 118 ± 5%
- Cell growth rate (%) (mean ± standard deviation) (0.5 μg/mL): 95 ± 9%
- Cell growth rate (%) (mean ± standard deviation) (5 μg/mL): 107 ± 18%
- Cell growth rate (%) (mean ± standard deviation) (50 μg/mL): 91 ± 4%
